Assay results published in patent US7473790B2 (Pfizer Inc., priority 2003, dated 2009).

These compounds were tested against T1, HCV polymerase (Hepatitis C virus genotype 1b, UniProt P26663) (assay: HCV polymerase primer/template-directed transcription assay (32P-GTP incorporation, filter binding)). Conditions: @ 50 uM compound; given where IC50 was impractical to calculate; read-out: percent inhibition.
T1 construct: 2.5 pmoles (0.15 μg) HCV polymerase protein in a final volume of 75 μL
T1 sequence (P26663 2420-3010): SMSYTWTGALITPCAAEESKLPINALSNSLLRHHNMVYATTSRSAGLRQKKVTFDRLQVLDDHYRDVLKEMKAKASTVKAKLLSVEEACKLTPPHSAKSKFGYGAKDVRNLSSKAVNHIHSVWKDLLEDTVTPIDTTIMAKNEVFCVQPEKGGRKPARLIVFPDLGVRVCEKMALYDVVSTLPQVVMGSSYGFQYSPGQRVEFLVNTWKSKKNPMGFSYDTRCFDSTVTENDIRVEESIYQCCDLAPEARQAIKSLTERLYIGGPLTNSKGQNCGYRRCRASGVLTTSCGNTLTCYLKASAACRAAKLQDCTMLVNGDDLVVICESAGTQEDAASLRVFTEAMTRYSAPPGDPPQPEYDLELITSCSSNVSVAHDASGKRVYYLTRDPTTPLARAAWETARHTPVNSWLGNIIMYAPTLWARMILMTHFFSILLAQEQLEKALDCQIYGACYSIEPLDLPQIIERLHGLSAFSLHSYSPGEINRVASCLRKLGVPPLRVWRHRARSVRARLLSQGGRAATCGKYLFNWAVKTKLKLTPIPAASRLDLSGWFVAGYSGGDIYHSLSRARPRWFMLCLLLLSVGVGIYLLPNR
Format: biochemical
Summary of the method: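 Recombinant genotype 1b polymerase (30 nM) extended biotin-dG12 primer on poly(rC)300 template with 1 μM GTP plus α-32P-GTP, pH 7.2, 10 mM MgCl2, 30 min at 30° C, 1% DMSO final. Products captured on DE filters and counted. IC50 fitted from triplicate cpm, with a tight-binding correction applied below 200 nM.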
Compound `COc1ccc(CCC2(CC(C)C)CC(=O)CC(=O)O2)cc1` (stereo not drawn) [A(24), 6-Isobutyl-6-[2-(4-methoxy-phenyl)-ethyl]-dihydro-pyran-2,4-dione] has an inhibition at 50 µM of 29%.

Same assay, conditions: recombinant HCV polymerase; 30 minutes at 30° C.; concentration giving 50% inhibition of polymerase-directed transcription; read-out: IC50
For `CCc1ccc(O)c(CCC2(C3CCCC3)CC(O)=C(Cc3nc4ncc(C)cn4n3)C(=O)O2)c1` (single isomer, unassigned; enantiomer 1) [A(174), Enantiomer 1 of 6-Cyclopentyl-6-[2-(5-ethyl-2-hydroxy-phenyl)-ethyl]-4-hydroxy-3-(6-methyl-[1,2,4]triazolo[1,5-a]pyrimidin-2-ylmethyl)-5,6-dihydro-pyran-2-one], the IC50 was 6 nM.
Work on `COc1ccc(CCC2(C3CCCC3)CC(O)=C(Cc3cc(=O)n4c(C)csc4n3)C(=O)O2)cc1` (stereo not drawn) [B(61), 7-({6-Cyclopentyl-4-hydroxy-6-[2-(4-methoxyphenyl)ethyl]-2-oxo-5,6-dihydro-2H-pyran-3-yl}methyl)-3-methyl-5H-[1,3]thiazolo[3,2-a]pyrimidin-5-one] yielded an IC50 of 120 nM.
In the case of `CCc1ccc(O)c(CCC2(C3CCCC3)CC(O)=C(Cc3nc4ncccn4n3)C(=O)O2)c1` (stereo not drawn) [A(176), 6-Cyclopentyl-6-[2-(5-ethyl-2-hydroxy-phenyl)-ethyl]-4-hydroxy-3-[1,2,4]triazolo[1,5-a]pyrimidin-2-ylmethyl-5,6-dihydro-pyran-2-one], the IC50 is reported as 6 nM.
Work on `COc1cc(OC)c(CCC2(C3CCCC3)CC(O)=C(Sc3nnc(C)n3CCN3CCOCC3)C(=O)O2)cc1Cl` (stereo not drawn) [C(86), 6-[2-(5-chloro-2,4-dimethoxyphenyl)ethyl]-6-cyclopentyl-4-hydroxy-3-{[5-methyl-4-(2-morpholin-4-ylethyl)-4H-1,2,4-triazol-3-yl]thio}-5,6-dihydro-2H-pyran-2-one] yielded an IC50 of 48 nM.
Work on `CC(C)Oc1ccc(CCC2(C3CCCC3)CC(=O)CC(=O)O2)cc1F` (single isomer, unassigned) [J(1), 6-cyclopentyl-6-[2-(3-fluoro-4-isopropoxyphenyl)ethyl]dihydro-2H-pyran-2,4(3H)-dione] yielded an IC50 of 4400 nM.
In the case of `COc1ccc(CCC2(C3CCCC3)CC(O)=C(Sc3nc4cc(Cl)ccc4[nH]3)C(=O)O2)cc1Cl` (stereo not drawn) [C(49), 3-[(5-chloro-1H-benzimidazol-2-yl)thio]-6-[2-(3-chloro-4-methoxyphenyl)ethyl]-6-cyclopentyl-4-hydroxy-5,6-dihydro-2H-pyran-2-one], the IC50 is reported as 80 nM.
With `CCCc1cc(CCC2(C3CCCC3)CC(=O)CC(=O)O2)ccc1O` (stereo not drawn) [A(90), 6-cyclopentyl-6-[2-(4-hydroxy-3-propylphenyl)ethyl]dihydro-2H-pyran-2,4(3H)-dione] the IC50 was 770 nM.
`COc1ccc(CCC2(C3CCCC3)CC(O)=C(C(C)=O)C(=O)O2)cc1Cl` (stereo not drawn) [B(88), 3-Acetyl-6-[2-(3-chloro-4-methoxy-phenyl)-ethyl]-6-cyclopentyl-4-hydroxy-5,6-dihydro-pyran-2-one] gave an IC50 of 5100 nM.
With `CC(C)(C#N)c1ccc(CCC2(C3CCCC3)CC(O)=C(Cc3nc4ncc(Cl)cn4n3)C(=O)O2)cc1F` (single isomer, unassigned; (+)) [A(248), (+)-2-(4-{2-[5-(6-Chloro-[1,2,4]triazolo[1,5-a]pyrimidin-2-ylmethyl)-2-cyclopentyl-4,6-dioxo-tetrahydro-pyran-2-yl]-ethyl}-2-fluoro-phenyl)-2-methyl-propionitrile] the IC50 was 16 nM.
`Cc1cc(C)n2nc(CC3=C(O)CC(CCc4ccc(Cl)c(Cl)c4)(C4CCCC4)OC3=O)nc2n1` (stereo not drawn) [B(38), 6-Cyclopentyl-6-[2-(3,4-dichloro-phenyl)-ethyl]-3-(5,7-dimethyl-[1,2,4]triazolo[1,5-a]pyrimidin-2-ylmethyl)-4-hydroxy-5,6-dihydro-pyran-2-one] gave an IC50 of 21 nM.
`Cc1cnc2nc(CC3=C(O)CC(CCc4ccc(C(C)C#N)c(F)c4)(C4CCCC4)OC3=O)nn2c1` (stereo not drawn) [A(240), 2-(4-{2-[2-Cyclopentyl-4-hydroxy-5-(6-methyl-[1,2,4]triazolo[1,5-a]pyrimidin-2-ylmethyl)-6-oxo-3,6-dihydro-2H-pyran-2-yl]-ethyl}-2-fluoro-phenyl)-propionitrile] was tested, and the IC50 was 9 nM.
`Cc1cnc2nc(CC3=C(O)CC(CCc4ccc(C(C)(C)C#N)c(Cl)c4)(C4CCCC4)OC3=O)nn2c1` (racemic) [A(202), 2-(2-Chloro-4-{2-[2-cyclopentyl-4-hydroxy-5-(6-methyl-[1,2,4]triazolo[1,5-a]pyrimidin-2-ylmethyl)-6-oxo-3,6-dihydro-2H-pyran-2-yl]-ethyl}-phenyl)-2-methyl-propionitrile] was tested, and the IC50 was 12 nM.
In the case of `CCc1ccc(OC)c(CCC2(C3CCCC3)CC(O)=C(Cc3nc4nc(C)cc(C)n4n3)C(=O)O2)c1` (stereo not drawn) [B(98), 6-Cyclopentyl-3-(5,7-dimethyl-[1,2,4]triazolo[1,5-a]pyrimidin-2-ylmethyl)-6-[2-(5-ethyl-2-methoxy-phenyl)-ethyl]-4-hydroxy-5,6-dihydro-pyran-2-one], the IC50 is reported as 6 nM.
For `COc1ccc(CCC2(C3CCCC3)CC(O)=C(Sc3nncn3-c3ccccc3)C(=O)O2)cc1Cl` (stereo not drawn) [C(37), 6-[2-(3-chloro-4-methoxyphenyl)ethyl]-6-cyclopentyl-4-hydroxy-3-[(4-phenyl-4H-1,2,4-triazol-3-yl)thio]-5,6-dihydro-2H-pyran-2-one], the IC50 was 130 nM.
`O=C1CC(=O)OC(CCC#Cc2ccccc2OC(F)(F)F)(C2CCCC2)C1` (stereo not drawn) [F(4), 6-Cyclopentyl-6-[4-(2-trifluoromethoxy-phenyl)-but-3-ynyl]-dihydro-pyran-2,4-dione] was tested, and the IC50 was 5800 nM.
Compound `COc1ccc(CCC2(C3CCCC3)CC(=O)C(Cc3ccccn3)C(=O)O2)cc1Cl` (stereo not drawn) [B(81), 6-[2-(3-chloro-4-methoxyphenyl)ethyl]-6-cyclopentyl-3-(pyridin-2-ylmethyl)dihydro-2H-pyran-2,4(3H)-dione] has an IC50 of roughly 240 nM.
With `COc1ccc(CCC2(C3CCCC3)CC(O)=C(SCc3ccccn3)C(=O)O2)cc1Cl` (stereo not drawn) [C(107), 6-[2-(3-chloro-4-methoxyphenyl)ethyl]-6-cyclorpentyl-4-hydroxy-3-[(pyridin-2-ylmethyl)thio]-5,6-dihydro-2H-pyran-2-one] the IC50 was 160 nM.
With `COc1ccc(CCC2(C3CCCC3)CC(O)=C(Sc3cccc4cccnc34)C(=O)O2)cc1Cl` (stereo not drawn) [C(03), 6-[2-(3-Chloro-4-methoxy-phenyl)-ethyl]-6-cyclopentyl-4-hydroxy-3-(quinolin-8-ylsulfanyl)-5,6-dihydro-pyran-2-one] the IC50 was 500 nM.
Work on `Cc1cnc2nc(CC3C(=O)CC(CCc4ccc(C(C)(C)C#N)c(F)c4)(C4CCCC4)OC3=O)nn2c1` (racemic) [A(108), 2-(4-{2-[2-Cyclopentyl-5-(6-methyl-[1,2,4]triazolo[1,5-a]pyrimidin-2-ylmethyl)-4,6-dioxo-tetrahydro-pyran-2-yl]-ethyl}-2-fluoro-phenyl)-2-methyl-propionitrile] yielded an IC50 of 3 nM.
For `CC(C)c1ccc(CCC2(C3CCCC3)CC(=O)CC(=O)O2)cc1Cl` (stereo not drawn) [A(63), 6-[2-(3-chloro-4-isopropylphenyl)ethyl]-6-cyclopentyldihydro-2H-pyran-2,4(3H)-dione], the IC50 was 11000 nM.
`Cn1ccc2cc(CC3=C(O)CC(CCc4ccc(C(C)(C)C#N)c(F)c4)(C4CCCC4)OC3=O)ccc21` (stereo not drawn) [B(92), 2-[4-(2-{2-cyclopentyl-4-hydroxy-5-[(1-methyl-1H-indol-5-yl)methyl]-6-oxo-3,6-dihydro-2H-pyran-2-yl}ethyl)-2-fluorophenyl]-2-methylpropanenitrile] gave an IC50 of 8 nM.
Work on `O=C1CC(=O)OC(CCC2=CCCCC2)(C2CCCC2)C1` (stereo not drawn) [A(13), 6-(2-Cyclohex-1-enyl-ethyl)-6-cyclopentyl-dihydro-pyran-2,4-dione] yielded an IC50 of 63000 nM.
Work on `O=C1CC(=O)OC(CCc2cccc(CCO)c2)(C2CCCC2)C1` (stereo not drawn) [A(80), 6-Cyclopentyl-6-{2-[3-(2-hydroxy-ethyl)-phenyl]-ethyl}-dihydro-pyran-2,4-dione] yielded an IC50 of 20000 nM.
With `CC(C)(C#N)c1ccc(CCC2(C3CCCC3)CC(O)=C(Cc3cc[nH]c(=O)c3)C(=O)O2)cc1F` (stereo not drawn) [A(99), 2-[4-(2-{2-cyclopentyl-4-hydroxy-6-oxo-5-[(2-oxo-1,2-dihydropyridin-4-yl)methyl]-3,6-dihydro-2H-pyran-2-yl}ethyl)-2-fluorophenyl]-2-methylpropanenitrile] the IC50 was 17 nM.
In the case of `Cc1cc(C)n2nc(CC3=C(O)CC(CCc4ccc(C5(C)OCCO5)c(Cl)c4)(C4CCCC4)OC3=O)nc2n1` (stereo not drawn) [B(122), 6-{2-[3-Chloro-4-(2-methyl-[1,3]dioxolan-2-yl)-phenyl]-ethyl}-6-cyclopentyl-3-(5,7-dimethyl-[1,2,4]triazolo[1,5-a]pyrimidin-2-ylmethyl)-4-hydroxy-5,6-dihydro-pyran-2-one], the IC50 is reported as 7 nM.
Work on `COc1cc(OC)c(CCC2(C3CCCC3)CC(O)=C(Sc3nnnn3C)C(=O)O2)cc1Cl` (stereo not drawn) [C(72), 6-[2-(5-Chloro-2,4-dimethoxyphenyl)ethyl]-6-cyclopentyl-4-hydroxy-3-[(1-methyl-1H-tetrazol-5-yl)thio]-5,6-dihydro-2H-pyran-2-one] yielded an IC50 of 78 nM.
`COc1ccc(CCC2(C3CCCC3)CC(O)=C(Sc3nnc(-c4ccc(O)cc4)[nH]3)C(=O)O2)cc1Cl` (stereo not drawn) [C(23), 6-[2-(3-Chloro-4-methoxy-phenyl)-ethyl]-6-cyclopentyl-3-[5-(4-hydroxy-phenyl)-4H-[1,2,4]triazol-3-ylsulfanyl]-dihydro-pyran-2,4-dione] showed an IC50 of 50 nM.
For `COc1ccc(CCC2(C3CCCC3)CC(O)=C(C(=O)Cc3ccccn3)C(=O)O2)cc1Cl` (stereo not drawn) [B(87), 6-[2-(3-Chloro-4-methoxy-phenyl)-ethyl]-6-cyclopentyl-4-hydroxy-3-(2-pyridin-2-yl-acetyl)-5,6-dihydro-pyran-2-one], the IC50 was 1800 nM.
With `Cc1cnc2nc(CC3=C(O)CC(CCc4ccc(O)c(CC(F)(F)F)c4)(C4CCCC4)OC3=O)nn2c1` (stereo not drawn) [A(224), 6-cyclopentyl-4-hydroxy-6-{2-[4-hydroxy-3-(2,2,2-trifluoroethyl)phenyl]ethyl}-3-[(6-methyl[1,2,4]triazolo[1,5-a]pyrimidin-2-yl)methyl]-5,6-dihydro-2H-pyran-2-one] the IC50 was 4 nM.
